According to PubChem BioAssay AID256 (DTP/NCI, 2004):
“And” between values parts separate entries of the source, which are not always exact repeats. Equal entries are not always repeated. Inconclusive results and toxic doses are left out. How the source made its calls: active means survival T/C of 150% or more; inactive means T/C below 125% in these data.

Test system: CD2F1 mice, L1210 leukemia ip, survival T/C
Experiment: NCI In Vivo Anticancer Drug Screen. Data for tumor model L1210 Leukemia (intraperitoneal) in CD2F1 (CDF1) mice
Details: higher = longer survival
Procedure, shortened: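 Activity against a transplanted murine tumor was judged by comparing the compound group with a vehicle group. The outcome in the treated animals was divided by that in the controls.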

[1] = endpoint: mean survival time, dose: 100.0 mg/kg/injection, schedule: Q01DX009 (ip), vehicle: saline with Tween-80
[2] = endpoint: mean survival time, dose: 100.0 mg/kg/injection, schedule: Q04DX003 (ip), vehicle: saline with Tween-80
[3] = endpoint: mean survival time, dose: 200.0 mg/kg/injection, schedule: Q01DX009 (ip), vehicle: saline with Tween-80
[4] = endpoint: mean survival time, dose: 200.0 mg/kg/injection, schedule: Q04DX003 (ip), vehicle: saline with Tween-80
[5] = endpoint: mean survival time, dose: 400.0 mg/kg/injection, schedule: Q01DX009 (ip), vehicle: saline with Tween-80
[6] = endpoint: mean survival time, dose: 400.0 mg/kg/injection, schedule: Q04DX003 (ip), vehicle: saline with Tween-80
[7] = endpoint: mean survival time, dose: 100.0 mg/kg/injection, schedule: Q04DX002 (ip), vehicle: saline with Tween-80
[8] = endpoint: mean survival time, dose: 50.0 mg/kg/injection, schedule: Q01DX009 (ip), vehicle: saline with Tween-80
[9] = endpoint: mean survival time, dose: 6.25 mg/kg/injection, schedule: Q01DX009 (ip), vehicle: saline with Tween-80
[10] = endpoint: mean survival time, dose: 12.5 mg/kg/injection, schedule: Q01DX009 (ip), vehicle: saline with Tween-80
[11] = endpoint: mean survival time, dose: 25.0 mg/kg/injection, schedule: Q01DX009 (ip), vehicle: saline with Tween-80

Measured: T/C

O=S(=O)(N=C1C(Cl)=C(Cl)C(=NS(=O)(=O)c2ccccc2)C(Cl)=C1Cl)c1ccccc1
inactive: endpoint: mean survival time, dose: 100.0 mg/kg/injection, schedule: Q04DX003 (ip), vehicle: Klucel (hydroxypropylcellulose) (HPC) 97 % of control | endpoint: mean survival time, dose: 200.0 mg/kg/injection, schedule: Q04DX003 (ip), vehicle: Klucel (hydroxypropylcellulose) (HPC) 95 % of control | endpoint: mean survival time, dose: 400.0 mg/kg/injection, schedule: Q04DX003 (ip), vehicle: Klucel (hydroxypropylcellulose) (HPC) 93 % of control

COC1C(O)C(C)OC(OC2CC(O)C3(C)C(CCC4C3CCC3(C)C(C5=CC(=O)OC5)CCC43O)C2)C1O (centres undefined) (tested in a mixture with another compound)
inactive: endpoint: mean survival time, dose: 50.0 mg/kg/injection, schedule: Q01DX001 (ip), vehicle: saline sonified 87 % of control

Cc1c2c(cc3c1[nH]c1ccccc13)C(c1ccc(Cl)cc1)=NCC2
inactive: [1] 101 % of control | [2] 101 % of control | [3] 98 % of control | [4] 89 % of control | [5] 106 % of control | [6] 88 % of control

Cc1ccc(S(=O)(=O)N(CCC(=O)O)c2ccccc2)cc1
inactive: [2] 101 % of control | [4] 97 % of control | [6] 98 % of control

CC(=O)OCC1OC2OC(C)(OC(C)(C)C)OC2C(OC(C)=O)C1OC(C)=O (centres undefined)
inactive: endpoint: mean survival time, dose: 12.5 mg/kg/injection, schedule: Q01DX009 (ip), vehicle: other 97 % of control | endpoint: mean survival time, dose: 25.0 mg/kg/injection, schedule: Q01DX009 (ip), vehicle: other 95 % of control | endpoint: mean survival time, dose: 50.0 mg/kg/injection, schedule: Q01DX009 (ip), vehicle: other 97 % of control | endpoint: mean survival time, dose: 100.0 mg/kg/injection, schedule: Q01DX009 (ip), vehicle: other 103 % of control | endpoint: mean survival time, dose: 200.0 mg/kg/injection, schedule: Q01DX009 (ip), vehicle: other 98 % of control

NC(N)=N/N=C/c1ccncc1
inactive: endpoint: mean survival time, dose: 100.0 mg/kg/injection, schedule: Q04DX002 (ip), vehicle: saline 92 % of control

CCCCCCCCCOc1ccc(Cl)cc1
inactive: endpoint: mean survival time, dose: 25.0 mg/kg/injection, schedule: Q04DX002 (ip), vehicle: saline with Tween-80 95 % of control | endpoint: mean survival time, dose: 50.0 mg/kg/injection, schedule: Q04DX002 (ip), vehicle: saline with Tween-80 100 % of control | [7] 90 % of control and 95 % of control | endpoint: mean survival time, dose: 400.0 mg/kg/injection, schedule: Q04DX002 (ip), vehicle: saline with Tween-80 93 % of control

NCCCN1CCN(c2ccccc2)CC1
inactive: [7] 92 % of control | endpoint: mean survival time, dose: 200.0 mg/kg/injection, schedule: Q04DX002 (ip), vehicle: saline with Tween-80 92 % of control

CC(=O)NC1C(OS(=O)(=O)c2ccc(C)cc2)C(NC(C)=O)C(OC(C)=O)C(OC(C)=O)C1OC(C)=O (centres undefined)
inactive: endpoint: mean survival time, dose: 100.0 mg/kg/injection, schedule: Q01DX001 (ip), vehicle: saline with Tween-80 97 % of control | endpoint: mean survival time, dose: 200.0 mg/kg/injection, schedule: Q01DX001 (ip), vehicle: saline with Tween-80 103 % of control | endpoint: mean survival time, dose: 400.0 mg/kg/injection, schedule: Q01DX001 (ip), vehicle: saline with Tween-80 101 % of control

O=C(CCCN1CCC(O)CC1)c1ccccc1
inactive: [8] 88 % of control | [1] 94 % of control

COC(=O)NS(=O)(=O)Nc1ccccc1
inactive: [1] 93 % of control | [3] 93 % of control | [5] 87 % of control

NC(CC[Se]Cc1ccccc1)C(=O)O (centres undefined)
inactive: [9] 92 % of control | [10] 92 % of control | [11] 92 % of control | [2] 90 % of control | [4] 86 % of control

Cc1cc(C)c(O)c(C)c1.[Hg]
inactive: endpoint: mean survival time, dose: 1.56 mg/kg/injection, schedule: Q01DX001 (ip), vehicle: Klucel (hydroxypropylcellulose) (HPC) 98 % of control | endpoint: mean survival time, dose: 3.13 mg/kg/injection, schedule: Q01DX001 (ip), vehicle: Klucel (hydroxypropylcellulose) (HPC) 92 % of control | endpoint: mean survival time, dose: 6.25 mg/kg/injection, schedule: Q01DX001 (ip), vehicle: Klucel (hydroxypropylcellulose) (HPC) 103 % of control

CCOc1ccc(Nc2nc(C(Cl)(Cl)Cl)cc(C(Cl)(Cl)Cl)n2)cc1CN(CC)CC
inactive: [9] 101 % of control | endpoint: mean survival time, dose: 6.25 mg/kg/injection, schedule: Q04DX003 (ip), vehicle: saline with Tween-80 97 % of control | [10] 100 % of control | endpoint: mean survival time, dose: 12.5 mg/kg/injection, schedule: Q04DX003 (ip), vehicle: saline with Tween-80 101 % of control | [11] 102 % of control | endpoint: mean survival time, dose: 25.0 mg/kg/injection, schedule: Q04DX003 (ip), vehicle: saline with Tween-80 95 % of control

Cc1cn2c(nc1=O)OC1C(O)C(CCl)OC12 (centres undefined)
inactive: endpoint: median survival time, dose: 12.5 mg/kg/injection, schedule: Q01DX005 (ip), vehicle: saline with Tween-80 103 % of control | endpoint: median survival time, dose: 25.0 mg/kg/injection, schedule: Q01DX005 (ip), vehicle: saline with Tween-80 96 % of control | endpoint: median survival time, dose: 50.0 mg/kg/injection, schedule: Q01DX005 (ip), vehicle: saline with Tween-80 103 % of control | endpoint: median survival time, dose: 100.0 mg/kg/injection, schedule: Q01DX005 (ip), vehicle: saline with Tween-80 95 % of control | endpoint: median survival time, dose: 200.0 mg/kg/injection, schedule: Q01DX005 (ip), vehicle: saline with Tween-80 94 % of control

O=C(O)c1cc(=O)cc(C(=O)O)o1
inactive: [11] 91 % of control | endpoint: mean survival time, dose: 50.0 mg/kg/injection, schedule: Q01DX009 (ip), vehicle: Klucel (hydroxypropylcellulose) (HPC) 91 % of control | [8] 90 % of control | endpoint: mean survival time, dose: 100.0 mg/kg/injection, schedule: Q01DX009 (ip), vehicle: Klucel (hydroxypropylcellulose) (HPC) 91 % of control | [1] 95 % of control

O=c1scc(-c2ccc([N+](=O)[O-])cc2)s1
inactive: endpoint: mean survival time, dose: 12.5 mg/kg/injection, schedule: Q04DX003 (ip), vehicle: Klucel (hydroxypropylcellulose) (HPC) 104 % of control | endpoint: mean survival time, dose: 25.0 mg/kg/injection, schedule: Q04DX003 (ip), vehicle: Klucel (hydroxypropylcellulose) (HPC) 91 % of control
